Assay results taken from patent US20220401514A1, “ANTIMICROBIAL, BACTERIOPHAGE-DERIVED POLYPEPTIDES AND THEIR USE AGAINST GRAM-NEGATIVE AND ACID-FAST BACTERIA” (CONTRAFECT CORPORATION, priority 2019, published 2022).
Read-outs that look alike come from different tables or passages of the source.

Tests used:
[1] = tested on: P. aeruginosa strain CFS-1292; assay: MIC in presence and absence of NaCl (140 mM); format: cell-based, Pseudomonas aeruginosa; conditions: for Fold change in MIC: CAA + 140 mM NaCl versus CAA without added NaCl; for MIC, CAA + 140 mM NaCl / MIC, CAA (no added NaCl): P. aeruginosa CFS-1292
Method: Certain Chp peptides were evaluated over a range of physiological NaCl levels and pH values, and were further evaluated for activity in the presence of various divalent cations.

[2] = tested on: Klebsiella pneumoniae; format: cell-based; conditions: for MIC50 / MIC100 / MIC Range: K. pneumoniae isolates (n per peptide in table); for MIC: Klebsiella pneumoniae HM-44, CAA supplemented with human serum
Method: (§1) Determination of Minimal Inhibitory Concentrations (MIC).
(§2) Additional MIC testing was performed for several peptides against the ESKAPE pathogens Escherichia coli, Enterobacter cloacae, Klebsiella pneumoniae, and Acinetobacter baumannii, in CAA supplemented with human serum (Table D).

[3] = tested on: Pseudomonas aeruginosa, Escherichia coli, Enterobacter cloacae, Klebsiella pneumoniae, and Acinetobacter baumannii; assay: MIC against a range of Gram-negative organisms (statements covering several species); format: cell-based; conditions: Tables 40-44 isolates
Method: as §1, §2

[4] = tested on: Acinetobacter baumannii; assay: microbe, parasite or virus in culture; format: cell-based; conditions: for MIC50 / MIC100 / MIC Range: A. baumannii isolates (n per peptide in table); for MIC: Acinetobacter baumannii ATCC BAA 747, CAA supplemented with human serum
[5] = tested on: Pseudomonas aeruginosa; assay: microbe, parasite or virus in culture; format: cell-based; conditions: P. aeruginosa isolates (n per peptide in table)
[6] = tested on: P. aeruginosa strain CFS-1292; assay: MIC in presence of divalent cations (calcium chloride, magnesium sulfate); format: cell-based, Pseudomonas aeruginosa
Method: Next, Chp peptides were evaluated in the presence of different divalent cations. […]; (2) in the presence of 2 mM calcium chloride alone; (3) in the presence of 1 mM magnesium sulfate alone; and (4) in the presence of both 2 mM calcium chloride and 1 mM magnesium sulfate. […]

[7] = tested on: M. fortuitum; assay: 45 hr MIC against M. fortuitum (NTM); format: cell-based, Mycobacterium fortuitum; conditions: M. fortuitum subsp. Fortuitum da Costa Cruz. ATCC 6841
[8] = tested on: M. kansasii Hauduroy ATCC 12478; assay: 45 hr MIC against M. kansasii (NTM), Mueller Hinton broth; format: cell-based, Mycobacterium kansasii
[9] = tested on: P. aeruginosa strain CFS-1292; assay: MIC in presence and absence of Survanta pulmonary surfactant; format: cell-based, Pseudomonas aeruginosa
[10] = tested on: M. avium; assay: 45 hr MIC against M. avium (NTM); format: cell-based, Mycobacterium avium; conditions: M. avium Chester ATCC 700898
[11] = Stability assessment in 100% CAA; format: in vitro ADME; design: unit not given beside the values
Method: Stability was assessed after incubation in 100% human serum at 37° C. after 10 minutes, 1 hour, and 2 hours.
Stability assessment was further conducted in 100% CAA and rabbit serum using the same methodology discussed above.

[12] = tested on: P. aeruginosa strain CFS-1292; assay: MIC in presence of mouse, rat, rabbit and human serum ([…] each); format: cell-based, Pseudomonas aeruginosa; conditions: P. aeruginosa CFS-1292
Method: The activity of several Chp peptides against P. aeruginosa strain CFS-1292 in animal serum was evaluated. […] Rat, mouse, and rabbit serum were all obtained from pooled gender samples.

[13] = tested on: carbapenem-resistant P. aeruginosa clinical isolate CFS-1292; assay: MIC by modified CLSI broth microdilution against P. aeruginosa CFS-1292 (CAA, CAA + human serum); format: cell-based, Pseudomonas aeruginosa; conditions: for MIC (μg/mL) against CFS-1292 in 100% CAA (1st run/2nd run): 1st run or single value
[14] = tested on: M. smegmatis; assay: 45 hr MIC against M. smegmatis (NTM), Mueller Hinton broth; format: cell-based, Mycobacterium smegmatis
[15] = tested on: M. intracellulare; assay: 45 hr MIC against M. intracellulare (NTM); format: cell-based, Mycobacterium intracellulare; conditions: M. intracellulare (Cuttino and McCabe) Runyon ATCC 13950
[16] = tested on: Enterobacter cloacae; assay: microbe, parasite or virus in culture; format: cell-based; conditions: for MIC50 / MIC100 / MIC Range: E. cloacae isolates (n per peptide in table); for MIC: Enterobacter cloacae ATCC 13047, CAA supplemented with human serum
Summary of the method: (§3)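 Medium: CAA with added human serum. Peptides tested for minimal inhibitory concentration against each strain.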

[17] = tested on: Escherichia coli; assay: microbe, parasite or virus in culture; format: cell-based; conditions: for MIC50 / MIC100 / MIC Range: E. coli isolates (n per peptide in table); for MIC: Escherichia coli ATCC 25922, CAA supplemented with human serum
Summary of the method: as §3

[18] = tested on: Mycobacterium tuberculosis strains
Method: MIC values for various Chp peptides were determined using the CLSI method for broth microdilution in 96-well microtiter format.
Next, MIC values for various Chp peptides were determined using the CLSI method above for broth microdilution in 96-well microtiter format for two different Mycobacterium tuberculosis strains. The MIC was determined as explained above for the NTM strains.

[19] = tested on: carbapenem-resistant bacterial strains; assay: organism not typed; format: cell-based
Text: as §1

[20] = tested on: S. maltophilia; assay: MIC against S. maltophilia isolates; format: cell-based, Stenotrophomonas maltophilia
Summary of the method: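 MIC in μg/mL for Chp peptides across several S. maltophilia isolates, n denoting the number of isolates tested.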

[21] = tested on: M. scrofulaceum; assay: 45 hr MIC against M. scrofulaceum (NTM); format: cell-based, Mycobacterium scrofulaceum; conditions: M. scrofulaceum Prissick and Masson ATCC 19981
[22] = tested on: P. aeruginosa strain CFS-1292; assay: MIC at pH 6, pH 7 and pH 8; format: cell-based, Pseudomonas aeruginosa
Method: The Chp peptides were further evaluated at varying pH levels. The MIC values were determined at pH 6, pH 7, and pH 8 for 18 different Chp peptides against P. aeruginosa strain CFS-1292. […]

[23] = CAA media + 0.19 mg/mL Survanta
[24] = Mycobacterium tuberculosis (Zopf) Lehmann and Neumann ATCC 25177
[25] = Mycobacterium tuberculosis (Zopf) Lehmann and Neumann ATCC 35817
[26] = carbapenem-resistant isolate PA19
[27] = carbapenem-resistant isolate PA20
[28] = carbapenem-resistant isolate PA21
[29] = carbapenem-resistant isolate PA22
[30] = carbapenem-resistant isolate PA23
[31] = carbapenem-resistant isolate PA24
[32] = carbapenem-resistant isolate WLC-452
[33] = S. maltophilia isolates (n per peptide in table)

MARSRRRMSKRSSRRSFRKYAKTHKKNFKARSMRGGIRL [Ecp3]
Fold change in MIC [1]: 4
MIC, CAA + 140 mM NaCl [1]: 2 µg/mL
MIC, CAA (no added NaCl) [1]: 0.5 µg/mL
MIC50 [2]: 1 µg/mL
MIC100 [2]: 2 µg/mL
MIC Range [2]: 0.5 to 4 µg/mL
MIC [2]: 0.5 µg/mL
activity (good = MIC100 of ≤4) against all of P. aeruginosa, K. pneumoniae, A. baumannii, E. cloacae, and E. coli [3]: good activity
MIC50 [4]: 0.25 µg/mL
MIC100 [4]: 0.5 µg/mL
MIC Range [4]: 0.125 to 0.5 µg/mL
MIC [4]: 2 µg/mL
MIC50 [5]: 2 µg/mL
MIC100 [5]: 4 µg/mL
MIC Range [5]: 0.5 to 4 µg/mL
MIC ([6]; CAA media + 1 mM MgSO4): 2 µg/mL
MIC ([6]; CAA media + 2 mM CaCl2): 2 µg/mL
MIC ([6]; CAA media + + 1 mM MgSO4): 2 µg/mL
MIC ([6]; CAA media alone): 1 µg/mL
45 hr MIC [7]: 2 µg/mL
45 hr MIC [8]: 2 µg/mL
MIC [9, 23]: 0.5 µg/mL
MIC ([9]; CAA media + […] Survanta): 0.5 µg/mL
MIC ([9]; CAA media alone): 0.5 µg/mL
45 hr MIC [10]: 1 µg/mL
MIC (100% CAA) [11]: 0.5
MIC BALB/C Mouse Serum [12]: >32 µg/mL
MIC CAA [12]: 0.5 µg/mL
MIC New Zealand White Rabbit Serum [12]: 8 µg/mL
MIC Sprague Dawley Rat Serum [12]: 8 µg/mL
MIC Human Serum [12]: 0.5 µg/mL
MIC (μg/mL) against CFS-1292 in 100% CAA (1st run/2nd run) [13]: 0.5 µg/mL
MIC (μg/mL) against CFS-1292 in CAA + […] human serum [13]: 0.5 µg/mL
45 hr MIC ([14]; M. smegmatis MC^2 155, Run #1): 4 µg/mL
45 hr MIC ([14]; M. smegmatis MC^2 155, Run #2): 8 µg/mL
45 hr MIC [15]: 8 µg/mL
MIC50 [16]: 0.5 µg/mL
MIC100 [16]: 4 µg/mL
MIC Range [16]: 0.25 to 4 µg/mL
MIC [16]: 4 µg/mL
MIC50 [17]: 1 µg/mL
MIC100 [17]: 2 µg/mL
MIC Range [17]: 0.125 to 8 µg/mL
MIC [17]: 1 µg/mL
MIC [18, 24]: 16 µg/mL
MIC [18, 25]: 8 µg/mL
MIC [19, 26]: 0.5 µg/mL
MIC [19, 27]: 4 µg/mL
MIC [19, 28]: 4 µg/mL
MIC [19, 29]: 4 µg/mL
MIC [19, 30]: 2 µg/mL
MIC [19, 31]: 2 µg/mL
MIC [19, 32]: 1 µg/mL
MIC50 [20, 33]: 4 µg/mL
MIC100 [20, 33]: >8 µg/mL
45 hr MIC [21]: 2 µg/mL
MIC ([22]; CAA media (pH 7)): 1 µg/mL
MIC ([22]; pH 6): 2 µg/mL
MIC ([22]; pH 7): 2 µg/mL
MIC ([22]; pH 8): 2 µg/mL

MRRRRLSRRTSRRFFRKGLKVRRRNLRARPMRGGFRI [Unp2]
Fold change in MIC [1]: 4
MIC, CAA + 140 mM NaCl [1]: 2 µg/mL
MIC, CAA (no added NaCl) [1]: 0.5 µg/mL
MIC50 [2]: 0.5 µg/mL
MIC100 [2]: 1 µg/mL
MIC Range [2]: 0.25 to 1 µg/mL
MIC [2]: 0.125 µg/mL
activity (good = MIC100 of ≤4) against all of P. aeruginosa, K. pneumoniae, A. baumannii, E. cloacae, and E. coli [3]: good activity
MIC50 [4]: 0.5 µg/mL
MIC100 [4]: 0.5 µg/mL
MIC Range [4]: 0.25 to 1 µg/mL
MIC [4]: 1 µg/mL
MIC50 [5]: 1 µg/mL
MIC100 [5]: 1 µg/mL
MIC Range [5]: 0.5 to 2 µg/mL
MIC ([6]; CAA media + 1 mM MgSO4): 0.25 µg/mL
MIC ([6]; CAA media + 2 mM CaCl2): 0.25 µg/mL
MIC ([6]; CAA media + + 1 mM MgSO4): 0.5 µg/mL
MIC ([6]; CAA media alone): 0.25 µg/mL
45 hr MIC [7]: 2 µg/mL
45 hr MIC [8]: 2 µg/mL
MIC [9, 23]: 0.5 µg/mL
MIC ([9]; CAA media + […] Survanta): 0.5 µg/mL
MIC ([9]; CAA media alone): 0.5 µg/mL
45 hr MIC [10]: 0.5 µg/mL
MIC (100% CAA) [11]: 0.25
MIC BALB/C Mouse Serum [12]: >32 µg/mL
MIC CAA [12]: 0.5 µg/mL
MIC New Zealand White Rabbit Serum [12]: 4 µg/mL
MIC Sprague Dawley Rat Serum [12]: 8 µg/mL
MIC Human Serum [12]: 0.5 µg/mL
MIC (μg/mL) against CFS-1292 in 100% CAA (1st run/2nd run) [13]: 0.5 µg/mL
MIC (μg/mL) against CFS-1292 in CAA + […] human serum [13]: 0.5 µg/mL
45 hr MIC ([14]; M. smegmatis MC^2 155, Run #1): 2 µg/mL
45 hr MIC ([14]; M. smegmatis MC^2 155, Run #2): 4 µg/mL
45 hr MIC [15]: 1 µg/mL
MIC50 [16]: 0.25 µg/mL
MIC100 [16]: 0.5 µg/mL
MIC Range [16]: 0.25 to 2 µg/mL
MIC [16]: 16 µg/mL
MIC50 [17]: 0.25 µg/mL
MIC100 [17]: 1 µg/mL
MIC Range [17]: 0.125 to 1 µg/mL
MIC [17]: 0.25 µg/mL
MIC [18, 24]: 16 µg/mL
MIC [18, 25]: 4 µg/mL
MIC [19, 26]: 0.5 µg/mL
MIC [19, 27]: 1 µg/mL
MIC [19, 28]: 2 µg/mL
MIC [19, 29]: 1 µg/mL
MIC [19, 30]: 1 µg/mL
MIC [19, 31]: 1 µg/mL
MIC [19, 32]: 0.5 µg/mL
MIC50 [20, 33]: 0.5 µg/mL
MIC100 [20, 33]: 1 µg/mL
MIC Range [20, 33]: 0.25 to 2 µg/mL
activity against S. maltophilia ([20]; Table 45 isolates): active
45 hr MIC [21]: 4 µg/mL
MIC ([22]; CAA media (pH 7)): 0.5 µg/mL
MIC ([22]; pH 6): 0.5 µg/mL
MIC ([22]; pH 7): 0.5 µg/mL
MIC ([22]; pH 8): 0.5 µg/mL
